This note sets out measurements from ChEMBL document CHEMBL4699623 (J Med Chem, 2020).

Molecules are shown by their SMILES.

Experiment [1] addresses T1, Alpha-2A adrenergic receptor (Rattus norvegicus, UniProt P22909).
T1 sequence (P22909 whole entry): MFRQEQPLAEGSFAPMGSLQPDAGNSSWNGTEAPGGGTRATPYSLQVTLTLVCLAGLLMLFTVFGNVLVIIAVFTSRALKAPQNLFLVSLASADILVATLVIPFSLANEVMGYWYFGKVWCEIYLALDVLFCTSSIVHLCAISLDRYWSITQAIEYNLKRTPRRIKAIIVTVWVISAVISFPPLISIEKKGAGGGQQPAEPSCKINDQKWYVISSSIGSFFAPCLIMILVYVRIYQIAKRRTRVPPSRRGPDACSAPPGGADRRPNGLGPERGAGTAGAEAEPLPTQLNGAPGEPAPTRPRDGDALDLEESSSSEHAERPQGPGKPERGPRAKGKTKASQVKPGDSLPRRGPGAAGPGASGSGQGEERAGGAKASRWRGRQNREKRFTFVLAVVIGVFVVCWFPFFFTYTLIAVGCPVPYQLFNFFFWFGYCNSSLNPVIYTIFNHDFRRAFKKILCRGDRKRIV
Description: Displacement of [3H]-clonidine from Sprague-Dawley rat alpha2 adrenergic receptor by radioligand binding assay. On the technique in general: Loss of bound radioactivity is the signal in a displacement assay; it reports binding, not function.

Experiment [2] concerns the target T2, Phenylethanolamine N-methyltransferase (Homo sapiens) (UniProt P11086).
T2 sequence (whole entry): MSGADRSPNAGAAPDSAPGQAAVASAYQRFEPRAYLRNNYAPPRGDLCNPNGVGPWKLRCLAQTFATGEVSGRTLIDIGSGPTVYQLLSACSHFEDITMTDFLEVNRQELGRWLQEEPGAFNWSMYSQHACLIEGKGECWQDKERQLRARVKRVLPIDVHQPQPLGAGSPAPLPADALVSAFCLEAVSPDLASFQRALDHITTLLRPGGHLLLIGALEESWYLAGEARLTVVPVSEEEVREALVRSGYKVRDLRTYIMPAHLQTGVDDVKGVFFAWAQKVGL

The target in experiment [3] is T3, Phenylethanolamine N-methyltransferase (Homo sapiens, UniProt P11086).
T3 sequence (P11086 whole entry): T2 sequence (whole entry)
Description: Competitive inhibition of C-terminal hexahistidine tag in human recombinant PNMT expressed in Escherichia coli assessed as inhibition constant using AdoMet as substrate in presence of 100 uM PEA as co-substrate by Sigma-plot analysis.

The Ki is a measure of affinity in units of concentration, obtained from inhibition or displacement. On to `NCC1Cc2ccccc2CN1` (stereo not given), for which affinity in experiment [1] was put at a Ki of 1.5 µM. For the same compound, the Kis in experiment [2] turned out to be 1.4 µM.
Take `Nc1ncnc2c1ncn2[C@@H]1O[C@H](CSCC[C@H](N)C(=O)O)[C@@H](O)[C@H]1O` [S-ADENOSYLHOMOCYSTEINE]: the Ki in experiment [3] was 14 µM.
As for `NC(=O)C1Cc2ccccc2CN1` (stereo not given), the Ki in experiment [1] came out at 250 µM. In experiment [2], this compound yielded a Kis of 31 µM.
